Patent US8288379B2, “Thia-triaza-cyclopentazulenes” (Boehringer Ingelheim International GmbH, priority 2009, dated 2012)

How the values were obtained:
[1] = biological target: T1, FRAP1 (mTOR) kinase (Homo sapiens, UniProt P42345); assay: Inhibition of mTOR-induced p-4E-BP1 phosphorylation (TR-FRET mTOR Activity Kit; Invitrogen); type: biochemical; conditions: 400 nM GFP-4E-BP1 substrate, ~150 ng/mL mTOR, one hour at room temperature
T1 construct: purchased Invitrogen PV4753
Excerpt: Inhibition of mTOR-Induced p-4E-BP1 Phosphorylation (TR-FRET mTOR Activity Kit; Invitrogen)
• GFP-4E-BP1 substrate; Invitrogen order no. PV4759 • Lanthascreen Tb-anti-p4E-BP1 (pThr46) Antibody Kit; Invitrogen order no. PV4758 • FRAP1 (mTOR) kinase; Invitrogen order no. […] Preparation of Reagents: Note: Thaw and keep mTOR, the substrate, ATP, and the antibody on ice prior to making working dilutions. Working dilutions of these components can be kept at room temperature for short periods of time the day of use. 1. Add 2 ml of 5× Assay Buffer to 8 ml water to prepare 10 ml of 1× Assay Buffer. Note: The concentration of 1× Assay Buffer is 50 mM HEPES pH 7.5, 0.01% Polysorbate 20, 1 mM EGTA, and 10 mM MnCl2. 2. Prepare Antibody/EDTA Solution by first adding 2.75 n1 of Tb-anti p4E-BP1 Antibody to 2397 n1 of LanthaScreen™ TR-FRET Dilution Buffer. Then, add 100 n1 of 0.5 M EDTA. 3. Prepare 4× Substrate/Enzyme Solution by first adding 72 n1 of GFP-4E-BP1 (22 nM) to 926 n1 of 1× Assay Buffer. Then, add 1.6 n1 of mTOR (0.45 mg/mL). 4. Prepare ATP Solution by adding 3.2 n1 of 10 mM ATP to 1997 n1 of 1× Assay Buffer. Serial Dilution of Inhibitors (16 Point Curve): Note: It is recommended that inhibitors be serially diluted in DMSO, then diluted to a 4× working concentration with 1× Assay Buffer. The below procedure describes dilution of compounds in a 96-well format prior to transfer to a 384-well format for kinase assays. This procedure calls for dilution of the compounds in 2 adjacent columns of a 96-well plate, which upon transfer to a single column of a 384-well plate with an 8-channel pipette will align the samples in order of concentration. 1. Dispense 40 n1 of DMSO to two adjacent columns of a 96 well plate per compound (e.g. columns 1 and 2). 2. Add 10 n1 of inhibitor stock (10 mM) to the first well of the first column (A1) and mix. 3. Remove 10 n1 from A1 and transfer to the adjacent well in the next column (B1) and mix. 4. Remove 10 n1 from B1 and transfer to the next well in the first column (B2) and mix. 5. Repeat this dilution pattern through well H1 and leave the last well (H2) as DMSO only. 6. Remove 4 n1 of diluted compounds and add to 96 n1 of 1× Assay Buffer in a 96-well plate making 4× compound dilutions. Kinase Reaction: 1. Add 2.5 μl of 4× compound dilutions from the first column of the 96-well plate to every other well of column 1 of a 384-well plate with an 8-channel pipette. Repeat for columns 2 and 3. 2. Add 2.5 n1 of 4× compound dilutions from the second column of the 96-well plate to the empty wells of column 1 of the 384-well plate with an 8-channel pipette. Repeat for columns 2 and 3. Note: This procedure aligns the compound dilutions in order of concentration. 3. Add 2.5 n1 of 4× Enzyme/Substrate Solution to all columns 1-6. 4. Preincubate for 30 min. at RT (shaker). 5. Add 5 n1 of ATP Solution to all wells to start reactions. 6. Shake the assay plate on a plate shaker for 30 seconds. 7. Incubate the assay plate for one hour at room temperature (20-25° C.). Stop Step and Fluorescence Detection: 1. Add 10 n1 of Antibody/EDTA Solution to each well in columns 1-9. 2. Shake the assay plate on a plate shaker for 30 seconds. 3. Incubate the assay plate for one hour at room temperature (20-25° C.). 4. Measure the GFP (FRET) and terbium (reference) emission signals on a fluorescence plate reader (e.g. Perkin Elmer Envision). Data Analysis: 1. Calculate the emission ratio for each sample by dividing the GFP (FRET) signal by the terbium (reference) signal. 2. Plot the concentration of each compound versus the emission ratio. Determine the concentration of compound required to reach 50% of the maximum signal (IC50). Determination of IC50 values can be obtained by curve fitting (sigmoidal dose response, variable slope) using Prism software from GraphPad). Inhibition of Proliferation: CyQuant PC-3 Description: […]

[2] = tested on: PC-3 cells; assay: Inhibition of proliferation: CyQuant PC-3; type: cell-based; conditions: 72 h; PC-3 human prostate carcinoma cells, incubated with compounds for 3 days, CyQuant NF DNA dye
Protocol: • GFP-4E-BP1 substrate; Invitrogen order no. PV4759 • Lanthascreen Tb-anti-p4E-BP1 (pThr46) Antibody Kit; Invitrogen order no. PV4758 • FRAP1 (mTOR) kinase; Invitrogen order no. […] Preparation of Reagents: Note: Thaw and keep mTOR, the substrate, ATP, and the antibody on ice prior to making working dilutions. Working dilutions of these components can be kept at room temperature for short periods of time the day of use. 1. Add 2 ml of 5× Assay Buffer to 8 ml water to prepare 10 ml of 1× Assay Buffer. Note: The concentration of 1× Assay Buffer is 50 mM HEPES pH 7.5, 0.01% Polysorbate 20, 1 mM EGTA, and 10 mM MnCl2. 2. Prepare Antibody/EDTA Solution by first adding 2.75 n1 of Tb-anti p4E-BP1 Antibody to 2397 n1 of LanthaScreen™ TR-FRET Dilution Buffer. Then, add 100 n1 of 0.5 M EDTA. 3. Prepare 4× Substrate/Enzyme Solution by first adding 72 n1 of GFP-4E-BP1 (22 nM) to 926 n1 of 1× Assay Buffer. Then, add 1.6 n1 of mTOR (0.45 mg/mL). 4. Prepare ATP Solution by adding 3.2 n1 of 10 mM ATP to 1997 n1 of 1× Assay Buffer. Serial Dilution of Inhibitors (16 Point Curve): Note: It is recommended that inhibitors be serially diluted in DMSO, then diluted to a 4× working concentration with 1× Assay Buffer. The below procedure describes dilution of compounds in a 96-well format prior to transfer to a 384-well format for kinase assays. This procedure calls for dilution of the compounds in 2 adjacent columns of a 96-well plate, which upon transfer to a single column of a 384-well plate with an 8-channel pipette will align the samples in order of concentration. 1. Dispense 40 n1 of DMSO to two adjacent columns of a 96 well plate per compound (e.g. columns 1 and 2). 2. Add 10 n1 of inhibitor stock (10 mM) to the first well of the first column (A1) and mix. 3. Remove 10 n1 from A1 and transfer to the adjacent well in the next column (B1) and mix. 4. Remove 10 n1 from B1 and transfer to the next well in the first column (B2) and mix. 5. Repeat this dilution pattern through well H1 and leave the last well (H2) as DMSO only. 6. Remove 4 n1 of diluted compounds and add to 96 n1 of 1× Assay Buffer in a 96-well plate making 4× compound dilutions. Kinase Reaction: 1. Add 2.5 μl of 4× compound dilutions from the first column of the 96-well plate to every other well of column 1 of a 384-well plate with an 8-channel pipette. Repeat for columns 2 and 3. 2. Add 2.5 n1 of 4× compound dilutions from the second column of the 96-well plate to the empty wells of column 1 of the 384-well plate with an 8-channel pipette. Repeat for columns 2 and 3. Note: This procedure aligns the compound dilutions in order of concentration. 3. Add 2.5 n1 of 4× Enzyme/Substrate Solution to all columns 1-6. 4. Preincubate for 30 min. at RT (shaker). 5. Add 5 n1 of ATP Solution to all wells to start reactions. 6. Shake the assay plate on a plate shaker for 30 seconds. 7. Incubate the assay plate for one hour at room temperature (20-25° C.). Stop Step and Fluorescence Detection: 1. Add 10 n1 of Antibody/EDTA Solution to each well in columns 1-9. 2. Shake the assay plate on a plate shaker for 30 seconds. 3. Incubate the assay plate for one hour at room temperature (20-25° C.). 4. Measure the GFP (FRET) and terbium (reference) emission signals on a fluorescence plate reader (e.g. Perkin Elmer Envision). Data Analysis: 1. Calculate the emission ratio for each sample by dividing the GFP (FRET) signal by the terbium (reference) signal. 2. Plot the concentration of each compound versus the emission ratio. Determine the concentration of compound required to reach 50% of the maximum signal (IC50). Determination of IC50 values can be obtained by curve fitting (sigmoidal dose response, variable slope) using Prism software from GraphPad). Inhibition of Proliferation: CyQuant PC-3 Description:
The CyQuant NF assay is based on measurement of cellular DNA content via fluorescent dye binding. Because cellular DNA content is highly regulated, it is closely proportional to cell number. […]

T1 sequence (P42345 1360-2549 limits assumed): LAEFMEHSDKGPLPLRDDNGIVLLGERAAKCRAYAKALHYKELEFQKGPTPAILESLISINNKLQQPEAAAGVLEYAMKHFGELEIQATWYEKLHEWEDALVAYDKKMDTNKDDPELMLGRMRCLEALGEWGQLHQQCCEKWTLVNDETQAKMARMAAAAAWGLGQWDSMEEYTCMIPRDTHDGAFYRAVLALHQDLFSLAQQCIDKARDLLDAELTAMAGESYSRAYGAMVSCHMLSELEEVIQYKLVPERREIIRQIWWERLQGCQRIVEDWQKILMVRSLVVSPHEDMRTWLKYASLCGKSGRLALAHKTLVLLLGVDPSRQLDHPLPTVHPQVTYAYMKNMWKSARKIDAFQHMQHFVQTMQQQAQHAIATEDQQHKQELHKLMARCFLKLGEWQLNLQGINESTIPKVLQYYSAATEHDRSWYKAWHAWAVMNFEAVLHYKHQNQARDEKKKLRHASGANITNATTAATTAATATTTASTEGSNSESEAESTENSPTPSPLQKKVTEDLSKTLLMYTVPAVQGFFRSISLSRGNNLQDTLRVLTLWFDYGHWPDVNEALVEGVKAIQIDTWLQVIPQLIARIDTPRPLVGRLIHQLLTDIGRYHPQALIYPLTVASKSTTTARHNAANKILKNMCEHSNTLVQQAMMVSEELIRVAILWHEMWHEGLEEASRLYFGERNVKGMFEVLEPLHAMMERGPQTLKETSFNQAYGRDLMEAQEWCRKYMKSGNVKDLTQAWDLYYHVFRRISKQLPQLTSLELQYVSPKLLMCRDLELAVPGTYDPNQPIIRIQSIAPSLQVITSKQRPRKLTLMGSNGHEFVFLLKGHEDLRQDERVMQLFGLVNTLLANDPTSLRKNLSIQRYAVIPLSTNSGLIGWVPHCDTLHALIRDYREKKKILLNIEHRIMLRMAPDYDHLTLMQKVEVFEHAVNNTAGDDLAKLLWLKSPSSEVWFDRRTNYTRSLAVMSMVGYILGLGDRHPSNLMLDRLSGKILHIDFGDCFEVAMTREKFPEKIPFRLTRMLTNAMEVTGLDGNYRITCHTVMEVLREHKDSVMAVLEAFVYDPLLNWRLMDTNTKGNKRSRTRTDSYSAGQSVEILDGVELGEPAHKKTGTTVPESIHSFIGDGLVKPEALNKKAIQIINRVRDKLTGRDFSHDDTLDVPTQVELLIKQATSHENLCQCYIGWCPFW

| Compound | IC50 [1] [nM] | EC50 [2] [nM] |
| --- | --- | --- |
| CC(=O)Nc1nc2c(s1)-c1c(c(-c3c[nH]cn3)nn1-c1ccc(C3(N(C)C)CC3)cc1)CCC2 [Example B-115] | 2 | 16 |
| CNc1ccc(-c2nn(-c3ccccc3C)c3c2CCCc2nc(NC(=O)CCC(=O)N(C)C)sc2-3)cn1 [Example B-108] | 102 | 106 |
| COc1ccccc1-n1nc(-c2c[nH]cn2)c2c1-c1sc(NC(C)=O)nc1CCC2 [Example B-117] | 35 | 306 |
| Cc1ccccc1-n1nc(-c2ccc(N)nc2)c2c1-c1sc(NC(=O)N(C)C)nc1CCC2 [Example B-55] | 170 | 450 |
| CCNc1ccc(-c2nn(-c3ccccc3C)c3c2CCCc2nc(NC(=O)CNC)sc2-3)cn1 [Example B-69] | 145 | 229 |
| COCCC(=O)Nc1nc2c(s1)-c1c(c(-c3ccc(N)nc3)nn1C(C)C)CCC2 [Example B-133, N-[3-(6-Amino-pyridin-3-yl)-1-isopropyl-1,4,5,6-tetrahydro-9-thia-1,2,7-triaza-cyclopenta[e]azulen-8-yl]-3-methoxy-propionamide] | 65 | 152 |
| CCCn1nc(-c2ccc(N)nc2)c2c1-c1sc(NC(C)=O)nc1CCC2 [Example B-131, N-[3-(6-Amino-pyridin-3-yl)-1-propyl-1,4,5,6-tetrahydro-9-thia-1,2,7-triaza-cyclopenta[e]azulen-8-yl]-acetamide] | 17 | 57 |
| COCCC(=O)Nc1nc2c(s1)-c1c(c(-c3ccc(N)nc3)nn1-c1ccccc1C)CCC2 [Example B-103, N-[3-(6-Amino-pyridin-3-yl)-1-o-tolyl-1,4,5,6-tetrahydro-9-thia-1,2,7-triaza-cyclopenta[e]azulen-8-yl]-3-methoxy-propionamide] | 37 | 87 |
| CC(=O)Nc1nc2c(s1)-c1c(c(-c3ccc(C)nc3)nn1C(C)C)CCC2 [Example B-09, N-[1-Isopropyl-3-(6-methyl-pyridin-3-yl)-1,4,5,6-tetrahydro-9-thia-1,2,7-triaza-cyclopent[e]azulen-8-yl]acetamide] | 266 | 334 |
| CCNc1ccc(-c2nn(-c3ccccc3OC)c3c2CCCc2nc(NC(C)=O)sc2-3)cn1 [Example B-78] | 136 | 249 |
| CNc1ccc(-c2nn(-c3ccccc3C)c3c2CCCc2nc(NC(=O)OC)sc2-3)cn1 [Example B-50, [3-(6-Methylamino-pyridin-3-yl)-1-o-tolyl-1,4,5,6-tetrahydro-9-thia-1,2,7-triaza-cyclopenta[e]azulen-8-yl]-carbamic acid methyl ester] | 30 | 209 |
| CC(=O)Nc1nc2c(s1)-c1c(c(-c3c[nH]cn3)nn1-c1ccccc1C)CCC2 [Example B-112, N-[3-(1H-imidazol-4-yl)-1-o-tolyl-1,4,5,6-tetrahydro-9-thia-1,2,7-triaza-cyclopenta[e]azulen-8-yl]-acetamide] | 39 | 110 |
| CC(=O)Nc1nc2c(s1)-c1c(c(-c3ccc(N)nc3)nn1-c1ccccc1F)CCC2 [Example B-62, N-[3-(6-Amino-pyridin-3-yl)-1-(2-fluoro-phenyl)-1,4,5,6-tetrahydro-9-thia-1,2,7-triaza-cyclopenta[e]azulen-8-yl]-acetamide] | 10 | 47 |
| C=CCn1nc(-c2ccc(NCC)nc2)c2c1-c1sc(NC(C)=O)nc1CCC2 [Example B-129] | 93 | 265 |
| CCNc1ccc(-c2nn(-c3ccccc3)c3c2CCCc2nc(NC(C)=O)sc2-3)cn1 [Example B-122, N-[3-(6-Ethylamino-pyridin-3-yl)-1-phenyl-1,4,5,6-tetrahydro-9-thia-1,2,7-triaza-cyclopenta[e]azulen-8-yl]-acetamide] | 32 | 79 |
| COCCn1nc(-c2ccc(N)nc2)c2c1-c1sc(NC(=O)N(C)C)nc1CCC2 [Example B-51] | 187 | 523 |
| CCNc1ccc(-c2nn(-c3ccccc3C)c3c2CCCc2nc(NC(=O)CCOC)sc2-3)cn1 [Example B-71] | 138 | 318 |
